From publication PMC11743598, “Identification of a binding site for small molecule inhibitors targeting human TRPM4” (Nature Communications, 2025) come the findings set out here.

In this assay the target is T1, HsTRPM4 (Homo sapiens, UniProt Q8TD43).
T1 construct: gene TRPM4; full-length, wild-type codon-optimized gene, C-terminal HA and FLAG tags, pcDNA3.1; patch clamp in transiently transfected cells (TsA-201); cryo-EM from HEK293F, SMA native nanodiscs, C4 symmetry (homotetramer)
In words: cryo-EM structure, […] A. It is filed as binding. The settings on record: endogenous lipid assigned from density, three sites per protomer, SMA native nanodiscs.

T1 sequence (Q8TD43 whole entry): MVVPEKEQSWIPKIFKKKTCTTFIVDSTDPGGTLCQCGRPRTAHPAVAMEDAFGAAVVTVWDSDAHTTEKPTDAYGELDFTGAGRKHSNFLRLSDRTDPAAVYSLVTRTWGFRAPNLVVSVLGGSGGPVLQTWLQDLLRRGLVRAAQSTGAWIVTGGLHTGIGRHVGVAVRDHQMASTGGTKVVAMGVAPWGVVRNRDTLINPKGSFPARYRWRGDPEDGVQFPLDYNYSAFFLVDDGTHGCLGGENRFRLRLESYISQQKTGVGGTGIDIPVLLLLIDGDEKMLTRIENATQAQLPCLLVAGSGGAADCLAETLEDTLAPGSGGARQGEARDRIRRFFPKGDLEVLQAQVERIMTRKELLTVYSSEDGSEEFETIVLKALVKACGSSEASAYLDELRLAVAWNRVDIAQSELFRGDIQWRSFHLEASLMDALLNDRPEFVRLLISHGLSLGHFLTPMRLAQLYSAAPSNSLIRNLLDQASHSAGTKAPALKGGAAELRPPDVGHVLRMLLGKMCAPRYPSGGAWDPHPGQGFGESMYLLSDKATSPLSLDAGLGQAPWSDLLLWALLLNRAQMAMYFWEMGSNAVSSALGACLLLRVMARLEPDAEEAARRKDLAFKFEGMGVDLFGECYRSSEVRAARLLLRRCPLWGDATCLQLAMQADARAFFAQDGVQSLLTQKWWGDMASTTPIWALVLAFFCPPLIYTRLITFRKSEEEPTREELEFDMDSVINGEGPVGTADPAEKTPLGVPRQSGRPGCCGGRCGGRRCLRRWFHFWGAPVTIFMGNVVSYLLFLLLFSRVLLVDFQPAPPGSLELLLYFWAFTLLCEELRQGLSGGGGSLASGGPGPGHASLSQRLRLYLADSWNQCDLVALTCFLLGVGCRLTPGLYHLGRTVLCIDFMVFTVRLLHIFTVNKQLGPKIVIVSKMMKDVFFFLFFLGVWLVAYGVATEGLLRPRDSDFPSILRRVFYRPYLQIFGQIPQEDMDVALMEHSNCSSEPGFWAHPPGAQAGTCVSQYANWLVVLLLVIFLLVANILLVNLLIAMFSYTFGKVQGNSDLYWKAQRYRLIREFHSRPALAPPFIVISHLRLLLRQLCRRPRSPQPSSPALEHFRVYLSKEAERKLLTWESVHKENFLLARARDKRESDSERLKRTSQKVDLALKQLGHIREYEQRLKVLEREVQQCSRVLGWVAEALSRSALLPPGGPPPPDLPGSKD

For the compound `CC(C)CCC[C@@H](C)[C@H]1CC[C@H]2[C@@H]3CC=C4C[C@@H](O)CC[C@]4(C)[C@H]3CC[C@]12C` [cholesterol], the “cryo-EM structure, 3.67 A” value is “primarily three densities for cholesterol molecules bound to TRPM4 observed”.
